Measured values reported in PubChem BioAssay AID2060356 (Molecular Pharmacology Branch, DTP, NCI, 2025).
“And” between values parts separate entries of the source, which are not always exact repeats. Equal entries are not always repeated.

Test system: PDC tumor spheroids with HUVEC/MSC, viability
Experiment: Anticancer human tumor 439559-082-T-J2-PDC patient-derived colon adenocarcinoma cell line growth inhibition [TAK]
Settings: for viability, T/C: stronger effect = lower value
How it was run: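 Tumor cells were grown as spheroids with HUVEC and hMSC (60:25:15) and treated with targeted agents combined with TAK-243 or ipatasertib. Drugs were tested in half-log steps down from near the clinical Cmax, or from 10 microM where Cmax was unknown.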

[1] = curve of first compound, second compound 0.3 µM
[2] = curve of first compound, second compound 0.949 µM
[3] = curve of first compound, second compound 3 µM
[4] = curve of first compound, second compound 9.49 µM
[5] = curve of first compound, second compound 30 µM
[6] = second compound 0.3 µM, first compound 0.316 µM
[7] = second compound 0.3 µM, first compound 1 µM
[8] = second compound 0.3 µM, first compound 3.16 µM
[9] = second compound 0.3 µM, first compound 10 µM
[10] = second compound 0.949 µM, first compound 0.316 µM
[11] = second compound 0.949 µM, first compound 1 µM
[12] = second compound 0.949 µM, first compound 3.16 µM
[13] = second compound 0.949 µM, first compound 10 µM
[14] = second compound 3 µM, first compound 0.316 µM
[15] = second compound 3 µM, first compound 1 µM
[16] = second compound 3 µM, first compound 3.16 µM
[17] = second compound 3 µM, first compound 10 µM
[18] = second compound 9.49 µM, first compound 0.316 µM
[19] = second compound 9.49 µM, first compound 1 µM
[20] = second compound 9.49 µM, first compound 3.16 µM
[21] = second compound 9.49 µM, first compound 10 µM
[22] = second compound 30 µM, first compound 0.316 µM
[23] = second compound 30 µM, first compound 1 µM
[24] = second compound 30 µM, first compound 3.16 µM
[25] = second compound 30 µM, first compound 10 µM
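Also: spheroids exposed to drugs for seven days before readout.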

Cn1cnc2c(F)c(Nc3ccc(Br)cc3Cl)c(C(=O)NOCCO)cc21
viability, T/C (compound 0.00949 µM): 101% and 110%
viability, T/C (compound 0.03 µM): 90.2% and 101%
viability, T/C (compound 0.0949 µM): 83.1% and 76.7%
viability, T/C (compound 0.3 µM): 71.4% and 79.2%
viability, T/C (compound 0.949 µM): 74.4% and 74.2%
viability, T/C (compound 3 µM): 65.5% and 64.2%
IC50 (curve of compound): > 3 µM

CC(C)(C)c1nc(-c2cccc(NS(=O)(=O)c3c(F)cccc3F)c2F)c(-c2ccnc(N)n2)s1
viability, T/C (compound 0.0316 µM): 114% and 120%
viability, T/C (compound 0.1 µM): 109%
viability, T/C (compound 0.316 µM): 118% and 108%
viability, T/C (compound 1 µM): 108% and 104%
viability, T/C (compound 3.16 µM): 120% and 102%
viability, T/C (compound 10 µM): 101% and 98%
IC50 (curve of compound): > 10 µM

Cc1nc(NC(=O)N2CCCC2C(N)=O)sc1-c1ccnc(C(C)(C)C(F)(F)F)c1 (stereo not given) + CC(C)NCC(C(=O)N1CCN(c2ncnc3c2C(C)CC3O)CC1)c1ccc(Cl)cc1
IC50 [1]: > 10 µM
IC50 [2]: > 10 µM
IC50 [3]: > 10 µM
IC50 [4]: > 10 µM
IC50 [5]: > 10 µM
viability, T/C (second compound 0.3 µM, first compound 0.0316 µM): 106%
viability, T/C (second compound 0.3 µM, first compound 0.1 µM): 98.8%
viability, T/C [6]: 85%
viability, T/C [7]: 86.8%
viability, T/C [8]: 80.9%
viability, T/C [9]: 69.6%
viability, T/C (second compound 0.949 µM, first compound 0.0316 µM): 109%
viability, T/C (second compound 0.949 µM, first compound 0.1 µM): 102%
viability, T/C [10]: 86.3%
viability, T/C [11]: 85.8%
viability, T/C [12]: 80.1%
viability, T/C [13]: 70%
viability, T/C (second compound 3 µM, first compound 0.0316 µM): 98.8%
viability, T/C (second compound 3 µM, first compound 0.1 µM): 102%
viability, T/C [14]: 85.5%
viability, T/C [15]: 85.6%
viability, T/C [16]: 78.5%
viability, T/C [17]: 82.3%
viability, T/C (second compound 9.49 µM, first compound 0.0316 µM): 95.8%
viability, T/C (second compound 9.49 µM, first compound 0.1 µM): 91.4%
viability, T/C [18]: 85%
viability, T/C [19]: 83.1%
viability, T/C [20]: 75.7%
viability, T/C [21]: 74.2%
viability, T/C (second compound 30 µM, first compound 0.0316 µM): 86.4%
viability, T/C (second compound 30 µM, first compound 0.1 µM): 91.7%
viability, T/C [22]: 84.9%
viability, T/C [23]: 79%
viability, T/C [24]: 81.3%
viability, T/C [25]: 71.5%

CCCS(=O)(=O)Nc1ccc(F)c(C(=O)c2c[nH]c3ncc(-c4ccc(Cl)cc4)cc23)c1F + CC(C)NCC(C(=O)N1CCN(c2ncnc3c2C(C)CC3O)CC1)c1ccc(Cl)cc1
IC50 [1]: > 100 µM
IC50 [2]: > 100 µM
IC50 [3]: > 100 µM
IC50 [4]: > 100 µM
IC50 [5]: 24.8 µM
viability, T/C [6]: 117%
viability, T/C [7]: 103%
viability, T/C [8]: 100%
viability, T/C [9]: 91.5%
viability, T/C (second compound 0.3 µM, first compound 31.6 µM): 93.4%
viability, T/C (second compound 0.3 µM, first compound 100 µM): 106%
viability, T/C [10]: 122%
viability, T/C [11]: 99.1%
viability, T/C [12]: 94.6%
viability, T/C [13]: 86.2%
viability, T/C (second compound 0.949 µM, first compound 31.6 µM): 21.8%
viability, T/C (second compound 0.949 µM, first compound 100 µM): 100%
viability, T/C [14]: 108%
viability, T/C [15]: 107%
viability, T/C [16]: 88.3%
viability, T/C [17]: 76%
viability, T/C (second compound 3 µM, first compound 31.6 µM): 51.6%
viability, T/C (second compound 3 µM, first compound 100 µM): 94.6%
viability, T/C [18]: 96.6%
viability, T/C [19]: 101%
viability, T/C [20]: 80.1%
viability, T/C [21]: 72.5%
viability, T/C (second compound 9.49 µM, first compound 31.6 µM): 8.73%
viability, T/C (second compound 9.49 µM, first compound 100 µM): 88.5%
viability, T/C [22]: 87.9%
viability, T/C [23]: 94.6%
viability, T/C [24]: 84.8%
viability, T/C [25]: 71.7%
viability, T/C (second compound 30 µM, first compound 31.6 µM): 1.55%
viability, T/C (second compound 30 µM, first compound 100 µM): 86.9%

Cc1nc(NC(=O)N2CCCC2C(N)=O)sc1-c1ccnc(C(C)(C)C(F)(F)F)c1 (stereo not given)
viability, T/C (compound 0.0316 µM): 108% and 109%
viability, T/C (compound 0.1 µM): 105% and 106%
viability, T/C (compound 0.316 µM): 88.8% and 87%
viability, T/C (compound 1 µM): 90.8% and 87.5%
viability, T/C (compound 3.16 µM): 90% and 80.8%
viability, T/C (compound 10 µM): 82.5% and 78.5%
IC50 (curve of compound): > 10 µM

COC1CC2CCC(C)C(O)(O2)C(=O)C(=O)N2CCCCC2C(=O)OC(C(C)CC2CCC(OCCO)C(OC)C2)CC(=O)C(C)C=C(C)C(O)C(OC)C(=O)C(C)CC(C)C=CC=CC=C1C (stereo not given)
viability, T/C (compound 0.000316 µM): 110% and 103%
viability, T/C (compound 0.001 µM): 97.7% and 98.1%
viability, T/C (compound 0.00316 µM): 90.7% and 89.7%
viability, T/C (compound 0.01 µM): 82.7% and 90.2%
viability, T/C (compound 0.0316 µM): 90.9% and 86%
viability, T/C (compound 0.1 µM): 91.7% and 92.3%
IC50 (curve of compound): > 0.1 µM

CC(=O)Nc1cccc(-n2c(=O)n(C3CC3)c(=O)c3c(Nc4ccc(I)cc4F)n(C)c(=O)c(C)c32)c1 + CC(C)NCC(C(=O)N1CCN(c2ncnc3c2C(C)CC3O)CC1)c1ccc(Cl)cc1
IC50 [1]: > 0.03 µM
IC50 [2]: > 0.03 µM
IC50 [3]: > 0.03 µM
IC50 [4]: > 0.03 µM
IC50 [5]: > 0.03 µM
viability, T/C (second compound 0.3 µM, first compound 94.9 pM): 105%
viability, T/C (second compound 0.3 µM, first compound 0.0003 µM): 97.6%
viability, T/C (second compound 0.3 µM, first compound 0.000949 µM): 85.8%
viability, T/C (second compound 0.3 µM, first compound 0.003 µM): 74.3%
viability, T/C (second compound 0.3 µM, first compound 0.00949 µM): 70.5%
viability, T/C (second compound 0.3 µM, first compound 0.03 µM): 62.1%
viability, T/C (second compound 0.949 µM, first compound 94.9 pM): 90.4%
viability, T/C (second compound 0.949 µM, first compound 0.0003 µM): 89.7%
viability, T/C (second compound 0.949 µM, first compound 0.000949 µM): 93.9%
viability, T/C (second compound 0.949 µM, first compound 0.003 µM): 75.1%
viability, T/C (second compound 0.949 µM, first compound 0.00949 µM): 66.6%
viability, T/C (second compound 0.949 µM, first compound 0.03 µM): 62.2%
viability, T/C (second compound 3 µM, first compound 94.9 pM): 102%
viability, T/C (second compound 3 µM, first compound 0.0003 µM): 98.8%
viability, T/C (second compound 3 µM, first compound 0.000949 µM): 76.8%
viability, T/C (second compound 3 µM, first compound 0.003 µM): 77.2%
viability, T/C (second compound 3 µM, first compound 0.00949 µM): 72.9%
viability, T/C (second compound 3 µM, first compound 0.03 µM): 61%
viability, T/C (second compound 9.49 µM, first compound 94.9 pM): 88.7%
viability, T/C (second compound 9.49 µM, first compound 0.0003 µM): 92.9%
viability, T/C (second compound 9.49 µM, first compound 0.000949 µM): 84.4%
viability, T/C (second compound 9.49 µM, first compound 0.003 µM): 80.5%
viability, T/C (second compound 9.49 µM, first compound 0.00949 µM): 66.9%
viability, T/C (second compound 9.49 µM, first compound 0.03 µM): 55.1%
viability, T/C (second compound 30 µM, first compound 94.9 pM): 89%
viability, T/C (second compound 30 µM, first compound 0.0003 µM): 91.8%
viability, T/C (second compound 30 µM, first compound 0.000949 µM): 81.7%
viability, T/C (second compound 30 µM, first compound 0.003 µM): 73.5%
viability, T/C (second compound 30 µM, first compound 0.00949 µM): 69.2%
viability, T/C (second compound 30 µM, first compound 0.03 µM): 54.8%

CC(C)CC(NC(=O)C(Cc1ccccc1)NC(=O)c1cnccn1)B(O)O (stereo not given)
viability, T/C (compound 31.6 pM): 111% and 105%
viability, T/C (compound 0.0001 µM): 104% and 98.9%
viability, T/C (compound 0.000316 µM): 102% and 98.8%
viability, T/C (compound 0.001 µM): 103% and 101%
viability, T/C (compound 0.00316 µM): 100% and 97.5%
viability, T/C (compound 0.01 µM): 66.4% and 69.6%
IC50 (curve of compound): > 0.01 µM
